Measurements as given in ChEMBL document CHEMBL5729557, “5-membered heteroaryl carboxamide compounds for treatment of HBV” (2023).

assay: Assay Measuring Activity of Test Compounds on Viral Production from HepAD38 Cells: HepAD38 cells grown in a T-150 flask (Corning, cat #: 430825) with Growth Medium (DMEM/F12 (1:1) (Hyclone, cat #: SH30023.02), 1× Pen/Strep (Invitrogen, cat #: 15140-122), 10% FBS (Tissue Culture Biologics, cat #: 101), 250 μg/mL G418 (Alfa Aesar, cat #: J62671), 1 μg/mL Tetracycline (Teknova, cat #: T3320)) were detached with 0.25% trypsin-EDTA to (Invitrogen, cat #: 25200-056). Tetracycline-free treatment medium (15 mL DMEM/F12 (1:1) 1× Pen/step, with 2% FBS, Tet-system approved (Clontech, cat #: 631106) were then added to mix, transferred into a 50 ml conical tube (Falcon, cat #: 21008-918,) and spun at 1300 rpm for 5 min. Pelleted cells were then re-suspended/washed with 50 mL of 1×DPBS (Invitrogen, cat #: 14190-136) 2 times and 50 mL treatment medium twice. HepAD38 cells were then re-suspended with 10 mL of treatment medium, syringed and counted. Wells of 96-well clear bottom TC plate (Corning, cat #: 3904,) were seeded at 50,000 cells/well in 180 μL of treatment medium, and 20 μL of either 10% DMSO (Sigma, cat #: D4540) as controls or a 10× solution of test compounds in 10% DMSO in treatment media was added for a final compound concentration starting at 10 μM, and plates were incubated in 5% CO2 incubator at 37° C. for 5 days.Subsequently viral load production was assayed by quantitative PCR (qPCR) of the HBV core sequence. PCR reaction mixture containing forward primers HBV-f 5′-CTGTGCCTTGGGTGGCTTT-3′ (IDT DNA), Reverse primers HBV-r 5′-[…]-3′ (IDT DNA), Fluorescent TaqMan™ Probes HBV-probe 5′-FAM/AGCTCCAAA/ZEN/[…]/3IABkFQ-3′ (IDT DNA), 10 μL/well of PerfeCTa® qPCR ToughMix® (Quanta Biosciences, Cat #: 95114-05K), and 6 μL/well of DEPC water (Alfa Aesar, cat #: J62087) was prepared. […] of supernatant was added to 16 μL of the reaction mixture in a qPCR plate (Applied Biosytems, Cat #: 4309849), sealed with a film (Applied Biosystems, Cat #: 4311971), centrifuged for a few seconds, and subsequently run on an Applied Biosystems VIIA7. The PCR mixture was incubated at 45° C. for 5 min, then 95° C. for 10 min, followed by 40 cycles of 10 seconds at 95° C. and 20 seconds at 60° C. Viral load was quantified against known HBV DNA standards by using ViiA™ 7 Software. Viral load in the supernatant from wells with treated cells were compared against viral load in supernatant from DMSO control wells (>3 per plate). Cell viability assay was performed with CellTiter-Glo Luminescent Cell Viability Assay (Promega, cat #: G7573) with modification. Mixed appropriate amount of CellTiter-Glo (CTG) 1×DPBS in a 1:1 ratio, added 100 uL of the mixture to each well followed completely removal of all supernatant in each well without touching cell surface. Incubated the plate at room temperature for 10 min on an orbital shaker, and then read the plate with a plate reader (TECAN M1000 or Envision).; conditions: HePAD38

| SMILES | EC50 |
| --- | --- |
| COc1cc(C(=O)NCCS(C)(=O)=O)ccc1[C@H]1CC[C@@H](c2nn(C)c(N)c2C(=O)Nc2ccc(F)c(Cl)c2)C1 | in the range around 300 nM |
| COc1cc(C(O)NCCN)ccc1C1CCC(c2nn(C)c(N)c2C(=O)Nc2ccc(F)c(Cl)c2)C1 (configuration not stated) | in the range around 300 nM |
| Cn1cc(C(=O)Nc2ccc(F)c(Cl)c2)c(C2CC3CC(=O)CC3C2)n1 (configuration not stated) | in the range around 5250 nM |
| COc1cc(-c2nccn2C)ccc1[C@H]1CC[C@@H](c2nn(C)c(N)c2C(=O)Nc2ccc(F)c(Cl)c2)C1 | in the range around 300 nM |
| COc1cc(-c2c[nH]cn2)ccc1[C@H]1CC[C@@H](c2nn(C)c(N)c2C(=O)Nc2ccc(F)c(Cl)c2)C1 | in the range around 300 nM |
| COc1cc(-c2cnn(C)c2)ccc1C1CCC(c2nn(C)c(N)c2C(=O)Nc2ccc(F)c(Cl)c2)C1 (configuration not stated) | in the range around 300 nM |
| COc1cc(-c2nccn2C)ccc1[C@@H]1CC[C@@H](c2nn(C)c(N)c2C(=O)Nc2ccc(F)c(Cl)c2)C1 | < 100 nM |
| COc1cc(-c2c[nH]cn2)ccc1[C@@H]1CC[C@@H](c2nn(C)c(N)c2C(=O)Nc2ccc(F)c(Cl)c2)C1 | < 100 nM |
| COc1cc(-c2cn(C)cn2)ccc1[C@@H]1CC[C@@H](c2nn(C)c(N)c2C(=O)Nc2ccc(F)c(Cl)c2)C1 | < 100 nM |
| COc1cc(-c2cscn2)ccc1C1CCC(c2nn(C)c(N)c2C(=O)Nc2ccc(F)c(Cl)c2)C1 (configuration not stated) | < 100 nM |
| Cn1cc(C(=O)Nc2ccc(F)c(Cl)c2)c(C2CC3CC(O)(CS(C)(=O)=O)CC3C2)n1 (configuration not stated) | in the range around 5250 nM |
| COc1cc(-c2nccs2)ccc1C1CCC(c2nn(C)c(N)c2C(=O)Nc2ccc(F)c(Cl)c2)C1 (configuration not stated) | in the range around 5250 nM |
